Laboratory results as given in ChEMBL document CHEMBL4184140, “Expanding the tetrahydroquinoline pharmacophore” (Bioorg Med Chem Lett, 2017).
The source made the active and inactive calls. No cut-off for these calls is given here.

Assays:
DU-145 = assay: Antiproliferative activity against human DU145 cells; type: functional, cell-based
HepG2 = assay: Antiproliferative activity against human HepG2 cells; type: functional, cell-based
IMR-32 [1] = assay: Cytotoxicity against human IMR32 cells after 48 hrs by SRB assay; type: cell-based; conditions: IMR-32, 48 h
MCF7 = assay: Antiproliferative activity against human MCF7 cells; type: functional, cell-based
A549 = assay: Antiproliferative activity against human A549 cells; type: functional, cell-based
IMR-32 [2] = assay: Neurotrophic activity in human IMR32 cells assessed as appearance of neurites at 1 to 10 uM after 96 hrs by bright field microscopic analysis; type: functional, cell-based

| SMILES | Activity (DU-145) | Activity (HepG2) | IC50 (IMR-32 [1]) [µM] | Activity (MCF7) | Activity (A549) | Activity (IMR-32 [2]) |
| --- | --- | --- | --- | --- | --- | --- |
| CC(=O)N1c2ccccc2[C@H]2[C@@H](O)[C@H](N=[N+]=[N-])C[C@H]2[C@H]1c1cccc(Br)c1 | inactive | inactive | > 100 | inactive | inactive | inactive |
| Brc1ccc2c(c1)[C@H]1C=CC[C@H]1[C@@H](c1ccccc1)N2 | inactive | inactive | 94.4 | inactive | inactive | inactive |
| O=[N+]([O-])c1ccc2c(c1)N[C@H](c1ccccc1)[C@@H]1C[C@H](O)[C@H](O)[C@H]21 | inactive | inactive | 57.1 | inactive | inactive | inactive |
| CC(=O)N1c2ccccc2[C@H]2C=CC[C@H]2[C@H]1c1ccccc1 | inactive | inactive | 61.6 | inactive | inactive | inactive |
| CC(=O)N1c2ccccc2[C@H]2[C@@H](O)[C@@H](O)C[C@H]2[C@H]1c1ccccc1 | inactive | inactive | > 100 | inactive | inactive | inactive |
| C=CCO[C@@H]1[C@@H]2c3ccccc3N(C(C)=O)[C@H](c3ccccc3)[C@@H]2C[C@H]1N=[N+]=[N-] | inactive | inactive | 17.4 | inactive | inactive | inactive |
| O[C@@H]1[C@@H]2c3cc(Br)ccc3N[C@H](c3ccccc3)[C@@H]2C[C@@H]1O | inactive | inactive | > 100 | inactive | inactive | inactive |
| C=CCO[C@@H]1[C@@H]2c3ccccc3N(C(C)=O)[C@H](c3ccc(Cl)cc3)[C@@H]2C[C@H]1N=[N+]=[N-] | inactive | inactive | 66.5 | inactive | inactive | inactive |
| Fc1ccc2c(c1)N[C@H](c1ccccc1)[C@@H]1CC=C[C@H]21 | inactive | inactive | > 100 | inactive | inactive | inactive |
| C=CCO[C@H]1C(n2cc(-c3ccccc3)nn2)C[C@@H]2[C@H]1c1ccccc1N(C(C)=O)[C@@H]2c1ccccc1 (single isomer, unassigned) | inactive | inactive | 65 | inactive | inactive | inactive |
| CC(=O)N1c2ccccc2[C@H]2C=CC[C@H]2[C@H]1c1ccc(Cl)cc1 | inactive | inactive | 94.7 | inactive | inactive | inactive |
| O[C@@H]1[C@@H]2c3ccccc3N[C@H](c3ccc(Cl)cc3)[C@@H]2C[C@@H]1O | inactive | inactive | 64.6 | inactive | inactive | inactive |
| CC(=O)N1c2ccc(Br)cc2[C@H]2C=CC[C@H]2[C@H]1c1ccccc1 | inactive | inactive | 89.9 | inactive | inactive | inactive |
| Cc1ccccc1[C@H]1Nc2ccccc2[C@H]2[C@@H](O)[C@@H](O)C[C@H]21 | inactive | inactive | > 100 | inactive | inactive | inactive |
| CC(=O)N1c2cc([N+](=O)[O-])ccc2[C@H]2[C@@H](O)[C@H](N=[N+]=[N-])C[C@H]2[C@H]1c1ccccc1 | inactive | inactive | > 100 | inactive | inactive | inactive |
| COc1cccc2c1C(=O)c1c(O)c3c(c(O)c1C2=O)C[C@@](O)(C(=O)CO)C[C@@H]3O[C@H]1C[C@H](N)[C@H](O)[C@H](C)O1 [DOXORUBICIN] |  |  | 8.49 |  |  |  |
| CC(=O)N1c2ccccc2[C@@H]2[C@@H](C[C@@H]3O[C@H]23)[C@H]1c1cccc(Br)c1 | inactive | inactive | > 100 | inactive | inactive | inactive |
| O[C@@H]1[C@@H]2c3ccccc3N[C@H](c3ccccc3)[C@@H]2C[C@@H]1O | inactive | inactive | > 100 | inactive | inactive | inactive |
| C=CCO[C@@H]1[C@@H]2c3ccccc3N(C(C)=O)[C@H](c3cccc(Br)c3)[C@@H]2C[C@H]1N=[N+]=[N-] | inactive | inactive | > 100 | inactive | inactive | inactive |
| CC(=O)N1c2ccccc2[C@H]2[C@@H](O)[C@H](N=[N+]=[N-])C[C@H]2[C@H]1c1ccc(Cl)cc1 | inactive | inactive | > 100 | inactive | inactive | inactive |
| CC(=O)N1c2ccccc2[C@H]2C=CC[C@H]2[C@H]1c1ccccc1C | inactive | inactive | > 100 | inactive | inactive | inactive |
| O[C@@H]1[C@@H]2c3ccc(F)cc3N[C@H](c3ccccc3)[C@@H]2C[C@@H]1O | inactive | inactive | > 100 | inactive | inactive | inactive |
| Clc1ccc([C@H]2Nc3ccccc3[C@H]3C=CC[C@H]32)cc1 | inactive | inactive | > 100 | inactive | inactive | inactive |
| Brc1cccc([C@H]2Nc3ccccc3[C@H]3C=CC[C@H]32)c1 | inactive | inactive | > 100 | inactive | inactive | inactive |
| CC(=O)N1c2ccccc2[C@@H]2[C@@H](C[C@@H]3O[C@H]23)[C@H]1c1ccc(Cl)cc1 | inactive | inactive | > 100 | inactive | inactive | inactive |
